# Assay results reported in article PMC10145010, “Tuning the Biological Activity of PI3Kδ Inhibitor by the Introduction of a Fluorine Atom Using the Computational Workflow” (Molecules, 2023).
# pIC50: −log10 of the molar value.
# Biological target: T1, PI3Kδ (Homo sapiens, UniProt O00329)
# T1 construct: purchased Merck Millipore
# Assay: In vitro PI3Kδ inhibition assay (ADP-Glo kinase assay)
# Format: biochemical
# Conditions: mean from two independent experiments, PIP2 substrate 30 μM, 25 °C, 1 h
# Description: All compounds were tested by a biochemical assay that measured the inhibition of phosphatidylinositol […] production by PI3K isoform. The potency of the tested compounds was assessed by determining the ability of PI3Kδ enzymes (Merck Millipore) to convert ATP to ADP during an enzymatic reaction in the presence of these compounds at decreasing doses. The experiments were carried out using the ADP-Glo kinase assay kit (Promega), according to the manufacturer’s protocol. PIP2 lipid vesicles containing phosphoserine (ThermoFisher Scientific, Waltham, MA, USA) were used as a substrate in the enzymatic reaction. The composition of the reaction mixture and reaction conditions for PI3Kδ were as follows: concentration of PI3Kδ enzyme: 10 ng; reaction temperature and time: 25 °C and 1 h; final concentration of PIP2 substrate: 30 μM; and reaction buffer: 50 mM of HEPES (pH 7.5), 50 mM NaCl, 3 mM MgCl2, and 0.025 mg/mL of BSA.
# After the reaction, the ADP-Glo reagent and the kinase detection reagent were sequentially added. The reaction mixture was incubated for 40 min (25 °C, 600 rpm) after the addition of each reagent. Finally, luminescence intensity was measured and the IC50 value was calculated using GraphPad Prism 7 software (GraphPad, Boston, MA, USA). The results were presented as the mean value of IC50 obtained from at least two independent experiments.
# T1 sequence (O00329 whole entry): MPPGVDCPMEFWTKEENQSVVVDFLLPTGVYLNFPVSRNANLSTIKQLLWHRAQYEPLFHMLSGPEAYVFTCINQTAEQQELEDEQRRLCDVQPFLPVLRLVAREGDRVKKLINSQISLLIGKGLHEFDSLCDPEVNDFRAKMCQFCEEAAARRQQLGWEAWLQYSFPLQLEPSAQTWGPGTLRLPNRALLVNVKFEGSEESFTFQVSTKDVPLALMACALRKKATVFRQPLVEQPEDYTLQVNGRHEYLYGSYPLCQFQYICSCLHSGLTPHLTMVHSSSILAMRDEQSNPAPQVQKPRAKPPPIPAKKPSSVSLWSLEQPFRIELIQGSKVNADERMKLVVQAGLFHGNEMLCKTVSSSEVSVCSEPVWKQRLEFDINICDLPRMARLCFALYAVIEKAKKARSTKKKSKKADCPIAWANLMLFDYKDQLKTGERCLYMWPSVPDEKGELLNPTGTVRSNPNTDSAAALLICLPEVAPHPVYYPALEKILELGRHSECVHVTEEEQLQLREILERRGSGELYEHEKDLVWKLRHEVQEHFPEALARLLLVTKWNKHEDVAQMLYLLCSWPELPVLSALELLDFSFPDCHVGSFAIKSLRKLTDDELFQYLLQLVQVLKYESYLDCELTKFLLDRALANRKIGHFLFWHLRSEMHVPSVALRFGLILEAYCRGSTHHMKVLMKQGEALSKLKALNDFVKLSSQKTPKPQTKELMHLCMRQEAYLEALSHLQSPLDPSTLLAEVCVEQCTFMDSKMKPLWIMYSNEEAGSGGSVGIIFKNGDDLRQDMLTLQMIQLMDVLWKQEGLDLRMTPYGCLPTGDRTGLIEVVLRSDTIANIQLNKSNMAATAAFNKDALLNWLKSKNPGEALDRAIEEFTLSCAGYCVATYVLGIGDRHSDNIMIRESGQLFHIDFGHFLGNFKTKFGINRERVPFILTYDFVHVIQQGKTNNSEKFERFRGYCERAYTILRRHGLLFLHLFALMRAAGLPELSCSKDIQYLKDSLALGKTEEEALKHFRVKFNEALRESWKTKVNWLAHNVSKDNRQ
# T1 sequence (P27986 whole entry partner): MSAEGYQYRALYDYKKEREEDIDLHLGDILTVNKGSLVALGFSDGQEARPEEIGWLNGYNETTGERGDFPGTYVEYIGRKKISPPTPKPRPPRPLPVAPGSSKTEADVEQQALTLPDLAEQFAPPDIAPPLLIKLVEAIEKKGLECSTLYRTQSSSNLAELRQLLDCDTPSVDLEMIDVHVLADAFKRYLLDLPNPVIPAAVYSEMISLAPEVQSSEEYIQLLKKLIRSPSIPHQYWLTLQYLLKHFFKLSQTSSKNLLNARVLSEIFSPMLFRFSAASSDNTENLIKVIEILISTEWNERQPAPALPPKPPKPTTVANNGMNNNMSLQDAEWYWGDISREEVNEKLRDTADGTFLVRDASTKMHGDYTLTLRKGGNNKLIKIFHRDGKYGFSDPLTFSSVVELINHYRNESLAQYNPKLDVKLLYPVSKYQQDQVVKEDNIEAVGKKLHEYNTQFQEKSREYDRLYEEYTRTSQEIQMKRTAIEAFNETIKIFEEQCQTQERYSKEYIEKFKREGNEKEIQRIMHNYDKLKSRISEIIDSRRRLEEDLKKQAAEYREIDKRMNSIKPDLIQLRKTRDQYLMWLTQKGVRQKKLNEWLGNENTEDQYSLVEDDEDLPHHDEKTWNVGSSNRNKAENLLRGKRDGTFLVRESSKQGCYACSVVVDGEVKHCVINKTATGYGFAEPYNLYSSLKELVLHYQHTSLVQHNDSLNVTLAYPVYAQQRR
row,Compound,pIC50
1,"CC(C)(C)N1CCN(Cc2nn3c(N4CCOCC4)cc(-n4c(C(F)F)nc5ccccc54)nc3c2Cl)CC1 [Compound 4, 1-{2-[(4-Tert-butylpiperazin-1-yl)methyl]-3-chloro-7-(morpholin-4-yl)pyrazolo[1,5-a]pyrimidin-5-yl}-2-(difluoromethyl)-1H-benzimidazole]",7.36
2,"CC(C)(C)N1CCN(Cc2nn3c(N4CCOCC4)cc(-n4c(C(F)F)nc5ccccc54)nc3c2Br)CC1 [Compound 5, 1-{3-Bromo-2-[(4-tert-butylpiperazin-1-yl)methyl]-7-(morpholin-4-yl)pyrazolo[1,5-a]pyrimidin-5-yl}-2-(difluoromethyl)-1H-benzimidazole]",7.30
3,"FC(F)c1nc2ccccc2n1-c1cc(N2CCOCC2)n2nc(CN3CCN(Cc4ccccc4)CC3)cc2n1 [Compound 6, 1-{2-[(4-Benzylpiperazin-1-yl)methyl]-7-(morpholin-4-yl)pyrazolo[1,5-a]pyrimidin-5-yl}-2-(difluoromethyl)-1H-benzimidazole]",6.93
4,Fc1ccccc1CN1CCN(Cc2cc3nc(-n4c(C(F)F)nc5ccccc54)cc(N4CCOCC4)n3n2)CC1 [Compound 7],6.19
5,Fc1cccc(CN2CCN(Cc3cc4nc(-n5c(C(F)F)nc6ccccc65)cc(N5CCOCC5)n4n3)CC2)c1 [Compound 8],6.12
6,Fc1ccc(CN2CCN(Cc3cc4nc(-n5c(C(F)F)nc6ccccc65)cc(N5CCOCC5)n4n3)CC2)cc1 [Compound 9],6.31

# Next, values leading:
row,pIC50,Compound
1,6.56,"O=C(c1cc2nc(-n3c(C(F)F)nc4ccccc43)cc(N3CCOCC3)n2n1)N1CCN(Cc2ccccc2)CC1 [Compound 10, 1-[2-(4-Benzylpiperazine-1-carbonyl)-7-(morpholin-4-yl)pyrazolo[1,5-a]pyrimidin-5-yl]-2-(difluoromethyl)-1H-benzimidazole]"
2,6.67,"O=C(c1cc2nc(-n3c(C(F)F)nc4ccccc43)cc(N3CCOCC3)n2n1)N1CCN(Cc2ccccc2F)CC1 [Compound 11, 2-(Difluoromethyl)-1-(2-{4-[(2-fluorophenyl)methyl]piperazine-1-carbonyl}-7-(morpholin-4-yl)pyrazolo[1,5-a]pyrimidin-5-yl)-1H-benzimidazole]"
3,7.04,"O=C(c1cc2nc(-n3c(C(F)F)nc4ccccc43)cc(N3CCOCC3)n2n1)N1CCN(Cc2cccc(F)c2)CC1 [Compound 12, 2-(Difluoromethyl)-1-(2-{4-[(3-fluorophenyl)methyl]piperazine-1-carbonyl}-7-(morpholin-4-yl)pyrazolo[1,5-a]pyrimidin-5-yl)-1H-benzimidazole]"
4,6.74,"O=C(c1cc2nc(-n3c(C(F)F)nc4ccccc43)cc(N3CCOCC3)n2n1)N1CCN(Cc2ccc(F)cc2)CC1 [Compound 13, 2-(Difluoromethyl)-1-(2-{4-[(4-fluorophenyl)methyl]piperazine-1-carbonyl}-7-(morpholin-4-yl)pyrazolo[1,5-a]pyrimidin-5-yl)-1H-benzimidazole]"
